Laboratory results as given in patent US11584745B2, “Aromatic heterocyclic compound, intermediate thereof, preparation method therefor, and pharmaceutical composition and use thereof” (SHANGHAI YINGLI PHARMACEUTICAL CO., LTD, priority 2018, dated 2023).

Target: ALK5 (Homo sapiens (Human), UniProt P36897)
Test: Evaluation experiment of ALK5 enzyme activity inhibition IC50 (ADP-Glo kinase assay)
Format: biochemical
Details: 25 nM ALK5, 0.1 mg/mL peptide TGFbR1, 7 μM ATP, 30° C. 1 hour, ADP-Glo luminescence
Experimental: 1×kinase buffer preparation: 40 mM Tris (pH 7.5), 20 mM MgCl2, 0.10% BSA, 1 mM DTT.
Compound preparation: The final detection concentration of the compound was 10 μM, which was configurated to a 100-fold concentration, i.e., 1 mM. In the second well of the 384-well plate, 100 μL of 100-fold compound was added, and 60 μL of 100% DMSO was added to other wells. 30 μL of compound from the second well was taken and added to the third well, and a 3-fold dilution was made in sequence, a total of 10 concentrations were diluted. 50 nL of compound was transferred to the reaction plate with echo.
Kinase reaction: Kinase was added to 1×kinase buffer to form a 2×enzyme solution. […] The polypeptide TGFbR1 (purchased from Signal Chem, catalog number T36-58) and ATP were added to 1×kinase buffer to form a 2×substrate solution. The final concentration of the substrate solution was 0.1 mg/mL peptide TGFbR1, 7 μM ATP. 2.5 μL of 2×enzyme solution was added to the 384-well reaction plate (there was already 50 nL of 100% DMSO dissolved compound), and 1×kinase buffer was added to the negative control well. The plate was incubated at room temperature for 10 minutes. 2.5 μL of 2× substrate solution was added to the 384-well reaction plate. The 384-well plate was covered and incubated at 30° C. for 1 hour. ADP-Glo reagent (purchased from Promege, catalog number v9102) was equilibrated to room temperature. 5 μL of ADP-Glo reagent was transferred to the reaction well of the 384-well plate to stop the reaction.
Detection of reaction results: 10 μL of kinase detection reagent was transferred to each reaction well, the plate was shaken for 1 minute and placed at room temperature for 30 minutes. The sample luminescence value was read at Synegy.
Curve fitting: The data of the luminescence reading from the Synegy program were copied. The value of the luminescence reading was converted into the percentage of inhibition by a formula (inhibition percent=(max-sample RLU)/(max-min)*100, wherein “min” was a […] reading of the control sample without enzyme; “max” was the […] reading of sample with DMSO as a control). The data were imported into MS Excel and GraphPad Prism was used for curve fitting. The ICso value was calculated.

Chain of ALK5 (P36897 34-503): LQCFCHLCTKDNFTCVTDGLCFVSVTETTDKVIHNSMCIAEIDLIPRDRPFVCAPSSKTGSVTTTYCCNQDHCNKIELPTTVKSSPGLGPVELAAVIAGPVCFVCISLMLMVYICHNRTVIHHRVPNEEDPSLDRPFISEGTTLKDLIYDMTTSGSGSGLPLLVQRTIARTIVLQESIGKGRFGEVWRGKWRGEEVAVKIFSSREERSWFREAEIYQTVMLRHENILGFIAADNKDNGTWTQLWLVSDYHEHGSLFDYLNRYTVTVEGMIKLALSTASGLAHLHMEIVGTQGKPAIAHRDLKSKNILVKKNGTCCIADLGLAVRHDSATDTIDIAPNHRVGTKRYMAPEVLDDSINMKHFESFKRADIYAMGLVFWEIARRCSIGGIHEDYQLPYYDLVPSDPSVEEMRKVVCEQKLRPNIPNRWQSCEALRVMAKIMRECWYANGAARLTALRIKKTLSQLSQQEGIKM

In the case of `Cc1cccc(-c2cccnc2-c2ccc3ncc(C(N)=O)n3c2)n1` [Compound 19], the IC50 is reported as 75 nM.

`Cc1cccc(-c2cc3ccccc3n2-c2ccc3ncc(C(N)=O)n3c2)n1` [Compound 25] gave an IC50 of 14 nM.

`Cc1cccc(-c2cncn2-c2ccc3ncc(C(N)=O)n3c2)n1` [Compound 9] showed an IC50 of 136 nM.

Work on `Cc1cccc(-c2cc(C)sc2-c2ccc3ncc(C(N)=O)n3c2)n1` [Compound 18] yielded an IC50 of 9.4 nM.

In the case of `Cc1cccc(-n2cccc2-c2ccc3ncc(C(N)=O)n3c2)n1` [Compound 4], the IC50 is reported as 19 nM.

For `Cc1cccc(-c2ccsc2-c2ccc3ncc(C(N)=O)n3c2)n1` [Compound 17], the IC50 was 5.2 nM.

With `Cc1cccc(-n2cccc2-c2ccc3ncc(C(=O)N(C)C)n3c2)n1` [Compound 5] the IC50 was 105 nM.

`Cc1cccc(-c2cnsc2-c2ccc3nccn3c2)n1` [Compound 16] was tested, and the IC50 was 165 nM.

`Cc1cccc(-c2cccn2-c2ccc3ncc(C(N)=O)n3c2)n1` [Compound 1] was tested, and the IC50 was 13 nM.

Work on `Cc1csc(-c2ncccc2-c2ccc3ncc(C(N)=O)n3c2)n1` [Compound 23] yielded an IC50 of 21 nM.

Molecule `Cc1cccc(-c2nccn2-c2ccc3ncc(C(N)=O)n3c2)n1` [Compound 8] has an IC50 of 7 nM.

`CNC(=O)c1cnc2ccc(-c3ncccc3-c3cccc(C)n3)cn12` [Compound 20] gave an IC50 of 76 nM.
